# Values joined by “and” are separate entries in the source; they are usually repeats but may differ in a detail not shown here. Equal values may be shown once.
# Columns and labels:
# [1] = system: HXB2 site-directed mutant M41L, T69S-SG, T215Y; format: cell-based; settings: virus M41L
# [2] = system: HXB2 site-directed mutant M41L, T69S-AG, T215Y; format: cell-based; settings: virus M41L
# [3] = system: HXB2 site-directed mutant D67N, K70R; format: cell-based; settings: virus D67N
# [4] = system: HXB2 site-directed mutant T69S-SG; format: cell-based; settings: virus T69S-SG
# [5] = system: HXB2 site-directed mutant T69S-AG; format: cell-based; settings: virus T69S-AG
# [6] = system: HXB2 site-directed mutant V75T; format: cell-based; settings: virus V75T
# [7] = system: HXB2 site-directed mutant M41L, T215Y; format: cell-based; settings: virus M41L
# [8] = system: HXB2 site-directed mutant M41L, D67N, K70R, M184V, T215Y; format: cell-based; settings: virus M41L
# [9] = system: HXB2 site-directed mutant M41L, M184V, T215Y; format: cell-based; settings: virus M41L
# [10] = system: HXB2 site-directed mutant Q151M; format: cell-based; settings: virus Q151M
# [11] = system: HXB2 site-directed mutant T69S-SS; format: cell-based; settings: virus T69S-SS
# [12] = system: HXB2 site-directed mutant M41L, T69S-SS, T215Y; format: cell-based; settings: virus M41L
# wild type HXB2 virus = test: HIV drug susceptibility assay (recombinant virus, MT-4 cells); settings: for IC50: Human immunodeficiency virus 1, HXB2, MT4, read-out: mean IC50 for the wild type control virus
SMILES,Fold resistance in IC50 relative to HXB2 [1] [fold],Fold resistance in IC50 relative to HXB2 [2] [fold],Fold resistance in IC50 relative to HXB2 [3],Fold resistance in IC50 relative to HXB2 [4],Fold resistance in IC50 relative to HXB2 [5],Fold resistance in IC50 relative to HXB2 [6] [fold],Fold resistance in IC50 relative to HXB2 [7],Fold resistance in IC50 relative to HXB2 [8],Fold resistance in IC50 relative to HXB2 [9],Fold resistance in IC50 relative to HXB2 [10] [fold],Fold resistance in IC50 relative to HXB2 [11] [fold],Fold resistance in IC50 relative to HXB2 [12],IC50 (wild type HXB2 virus) [nM],Virus Assay fold resistance (wild type HXB2 virus; wild type HXB2 virus (reference)) [fold]
"O=c1[nH]cnc2c1ncn2[C@H]1CC[C@@H](CO)O1 [ddI, didanosine]",5.0,6.5,0.3 fold,2.1 fold,3.8 fold,2.5,0.9 fold,2.4 fold,8.0 fold,3.5,4.3,2.5 fold,1600,
"Nc1nc(NC2CC2)c2ncn([C@H]3C=C[C@@H](CO)C3)c2n1 [Abacavir, abacavir]",9.6,12.0,1.8 fold,4.0 fold,7.0 fold,1.8,4.4 fold,4.1 fold,7.1 fold,2.8,3.0,4.6 fold,2100,
"Nc1ccn([C@H]2CC[C@@H](CO)O2)c(=O)n1 [ddC, zalcitabine]",2.8,2.5,1.3 fold,1.7 fold,2.8 fold,3.0,2.5 fold,5.1 fold,5.0 fold,5.4,3.2,1.5 fold,710,
"Cc1cn([C@H]2C[C@H](N=[N+]=[N-])[C@@H](CO)O2)c(=O)[nH]c1=O [AZT, zidovudine]",>96,>96,11 fold and 11.2 fold,8.1 fold and 8.1 (+/−4) fold,7.0 fold and 7.0 (+/−4) fold,1.4,26 fold and 26.2 fold and 26.2 (+/−10) fold,6.4 fold and 6.4 (+/−1.5) fold,5.2 fold and 5.2 (+/−1.5) fold,2.1,,12 fold and 12.0 fold and 12.0 (+/−2) fold,12,1.0
"Nc1ccn([C@@H]2CS[C@H](CO)O2)c(=O)n1 [3TC, lamivudine]",11.3,6.1,1.2 fold,2.9 fold,4.2 fold,3.2,1.0 fold,>62 fold,>62 fold,2.0,5.0,4.3 fold,600,
